Test results from patent US20230304996A1, “MICROFLUIDIC SYSTEM TO CONTROL PERFUSION, DIFFUSION AND COLLECTION OF MOLECULES OVER LONG PERIODS IN AN EX-VIVO SKIN MODEL” (GENOSKIN, priority 2020, published 2023).

Test: Diffusion of infused low molecular weight contrast agents in NativeSkin and FlowSkin models (surface colour intensity)
Assay type: in vitro ADME
Conditions: infused at 0.5 mg/mL, first hours of infusion; FLOWSKIN (with hypodermis) compared with NATIVESKIN (without)
Protocol: In order to characterize diffusion during the first hours of infusion in the NativeSkin° and in the FlowSkin®model, two low molecular weight contrast agents (KI: potassium Iodide, […]) and V patent blur (E131, 1 kDa) at 0.5 mg/mL have been infused in both models.
The result was similar with V patent blue (E131). Accordingly, it seems that the hypoderm facilitate the diffusion of low molecular weight agent within the FLOWSKIN® model.

[I-].[K+] [KI, potassium Iodide]
color intensity visible at the surface of the FLOWSKIN model versus the NATIVESKIN model: growing faster
